Reference: patent US20200333357A1, “NOVEL TFEB PATHWAY AGONISTS FOR METABOLIC DISEASES AND AGEING” (The Board of Regents of the University of Texas System, priority 2017, published 2020)
Where a name gives a salt, the structure may show the parent alone.

Experiments:
[1] = test system: C57BL/6J mice fed a high-fat diet; experiment: High-fat diet mouse model for in vivo compound delivery; conditions: for high fat diet-induced steatosis (liver histology): 3 weeks, DG oral, AD and IKA i.v. in PEG-PLA nanoparticles; for expression of Ppargc1α, Ppar1α and Fgf21: liver; for known TFEB target genes mRNA in liver and muscle: HFD mice treated with AD or IKA (PEG-PLA nanoparticles i.v.); for body weight/composition and blood chemistry: AD 1 mg kg-1 or IKA 0.5 mg kg-1 in PEG-PLA nanoparticles i.v.
Procedure: Total RNA was isolated from MEFs or mouse tissues using RNeasy minipreps (QIAGEN). Complementary DNA (cDNA) was synthesized with the High capacity RNA-to-cDNA kit (Applied biosystems), and qRT-PCR was performed using TaqMan® Gene Expression Assays (Applied biosystems) for the indicated genes on the LightCycler System (Roche Applied Science). Gapdh was used to normalize RNA input. The mouse probes used in this study were: Tfeb (Mm00448968_m1), Ctsa (Mm00447197_m1), Mcoln 1 (Mm00522550_m1), Ppara (Mm00440939_m1), Ppargc1a (Mm01208835_m1), Fgf21 (Mm00840165_g1) and Gapdh (Mm99999915_g1), and the human probes used were TFEB (Hs00292981_m1), CTSA (Hs00264902_m1), MCOLN1 (Hs01100653_m1), PPARGC1A (Hs00173304_m1), PPARA (Hs00947536_m1), UVRAG (Hs01075434_m1), GAPDH (Hs02758991_g1) and p62/SQSTM1 (Hs01061917_g1). All probes were from Thermo Fisher Scientific Inc.
All mouse experiments were approved and carried out following the ethical guidelines established by the Institutional Animal Care and Use Committee at UT Southwestern Medical Center. The investigators were not blinded to allocation during experiments and outcome assessment. Four to six weeks old male C57BL/6J mice were randomly divided into groups fed a regular diet (Harlan Teklad) or a high-fat diet (HFD) containing 60% fat (Research Diets). After one month, the HFD mice were grouped so that the average body weights of mice in each group were similar. The grouped mice were orally administered DG (2.5 mg kg-1) or its solvent 50% HPβCD solution, or intravenously injected with AD (1 mg kg-1) or IKA (0.5 mg kg-1) encapsulated in the PEG-PLA nanoparticles or empty nanoparticles, three times a week for three weeks. Body weight and food intake were measured twice a week before treatment and every day after treatment in the middle of the light period. The cage tops containing food pellets were weighed, as well as the spilled food in the bottom of the cage. The food intake was corrected for spillage.
At the end of the treatment, the body composition of each mouse was analyzed by EchoMRI (Echo Medical Systems LLC) according to the manufacturer's instructions.
For glucose tolerance tests, the mice were orally administered 1 mg g-1 glucose (Sigma-Aldrich) after a 4 hr fast. For insulin tolerance tests, the mice were intraperitoneally injected with 0.75 milliunit g-1 insulin (Humulin R, Eli Lily) after a 4 hr fast. Blood was drawn from tail veins at indicated time points after injection. Experiments were performed during light period. Serum glucose levels were analyzed using commercial glucose reagents (Sigma).
At the end of the treatment, blood was collected from the orbital plexus under anesthesia. Serum was frozen in aliquots and stored at −20° C. for further analysis. Specific enzyme kits were used to detect serum levels of triglyceride (Fisher Scientific), cholesterol (Fisher Scientific) and glucose (Sigma-Aldrich).
Livers and other organs were dissected and embedded in OCT. Cryostat sections were cut at 10 μm. The sections were stored at −80° C. and subjected to haematoxylin/eosin and oil red O staining following standard protocol. The immunohistochemistry (IHC) staining of p62 was performed following the protocol of Cell Signaling Technology. The primary antibody was from Abcam, and the SignalStain® boost IHC detection reagent and DAB substrate kit were from Cell Signaling Technology. All the sections were imaged using a NanoZoomer 2.0-HT Digital slide scanner (Hamamatzu) and processed using NDP viewer software.

[2] = test system: mice under fed and fast conditions; experiment: Short-term starvation and chloroquine-induced acute hepatic lipid accumulation in mice; assay type: in vivo, mouse
Procedure: SFIGS. […] (SFIG. 6A) The body weight (left y-axis, solid symbols) and food intake (right y-axis, open symbols) measured in normal-diet-fed mice treated with vehicle or 2.5 mg/kg DG. (SFIG. 6B) Drug release curves of AD (upper panel) and IKA (lower panel) in PBS. […] (SFIG. 6F) Cells were treated with various doses DG, AD and IKA for 4 hours, and cell viability was measured immediately or after 72 hours. Dose response curves were simulated using ImageJ. (SFIG. 6G) H&E staining of heart, spleen and kidney sections from mice treated with DG, AD, IKA and their corresponding controls. Scale bar, 100 μm. (SFIG. 6H) H&E staining of liver and heart sections as well as ORO and p62/SQSTM1 IHC staining of liver sections from mice under fed and fast conditions with orally injected DG and intraperitoneally injected CQ, individually and jointly, or their corresponding control (Saline). Scale bar, 50 μm. (SFIG. 6I) The body weight of mice after the treatment described in SFIG. 6H. (SFIGS. 6J-L) Total serum levels of triglyceride, cholesterol and glucose of mice after the treatment described in SFIG. 6G.

HepG2 cells = experiment: Oleic acid-induced lipid accumulation (oil red O staining); conditions: 1 mM oleic acid; 370 nM DG, 3.3 μM AD and IKA
mTORC1 = experiment: TSC2 dependence of mTORC1 inhibition and TFEB activation in p53-/- and p53-/-, TSC2-/- MEFs; assay type: cell-based, mouse; conditions: p53-/- vs p53-/-
C. elegans = C. elegans lifespan analysis; assay type: in vivo; conditions: for Lifespan increase (%): vs DMSO
Procedure: The C. elegans mutant strain, fem-1(hc17ts) IV; dal-1(dt2300), obtained from the Caenorhabditis Genetics Center at the University of Minnesota, was cultured on Nematode Growth Medium (NGM) plates seeded with the E. coli strain OP50 and consistently maintained at 15° C. For lifespan assays, a total of 12 age-synchronized nematode adults were transferred to eight replicate NGM plates and grown at 25° C. to ensure sterility. Age synchronization was achieved through standard hypochlorite treatments. Eggs were placed on NGM plates supplemented with Streptomycin (100 μg ml-1) and seeded with the E. coli strain, OP50. For compound testing, 200 μl of 10 μM Ikarugamycin in 5% DMSO was spotted directly onto OP50 seeded NGM plates. Control plates were prepared by spotting 200 μl of 5% DMSO directly onto OP50 seeded NGM plates. For the first 10 days of adulthood, C. elegans were scored once a day as dead or alive by touch stimulation with a platinum wire. After day 10, animals were scored every other day. Nematodes which crawling off the agar plates were censored from subsequent lifespan analysis. Kaplan-Meier statistical analysis was performed using Prism 7 software. Lifespan experiments were done on two separate occasions.

[3] = HFD mice, DG 2.5 mg kg-1 oral, three times a week for three weeks
[4] = HFD mice, three times a week for three weeks

SMILES: C[C@H]1O[C@@H](O[C@H]2[C@@H](O)C[C@H](O[C@H]3[C@@H](O)C[C@H](O[C@H]4CC[C@@]5(C)[C@H](CC[C@@H]6[C@@H]5C[C@@H](O)[C@]5(C)[C@@H](C7=CC(=O)OC7)CC[C@]65O)C4)O[C@@H]3C)O[C@@H]2C)C[C@H](O)[C@@H]1O [DG, digoxin, reference compound]
- high fat diet-induced steatosis (liver histology) ([1]; HFD mice): amelioration
- body composition [1, 3]: normalized
- body weight [1, 3]: normalized
- circulating cholesterol [1, 3]: normalized
- circulating glucose [1, 3]: normalized
- circulating insulin levels [1, 3]: normalized
- circulating triglycerides [1, 3]: normalized
- expression of Ppargc1α, Ppar1α and Fgf21 ([1]; HFD mice): upregulation
- p62/SQSTM1 accumulation in liver ([2]; fast, CQ, DG oral): reduction
- fast-induced hepatic lipid accumulation ([2]; overnight fast, CQ intraperitoneal, DG oral co-administration): improved
- oleic acid-induced lipid accumulation in human hepatocytes (HepG2 cells): significantly ameliorated

SMILES: CCCCC(CC)CNC(=N)NC(=N)NCCCCCCNC(=N)NC(=N)NCC(CC)CCCC (stereo not drawn) [AD, alexidine dihydrochloride]
- known TFEB target genes mRNA in liver and muscle [1]: upregulated in the liver rather than in the muscle
- high fat diet-induced steatosis (liver histology) ([1]; HFD mice): amelioration
- body weight/composition and blood chemistry [1, 4]: significant normalization
- expression of Ppargc1α, Ppar1α and Fgf21 ([1]; HFD mice): upregulation
- oleic acid-induced lipid accumulation in human hepatocytes (HepG2 cells): significantly ameliorated
- dependence of mTORC1 inhibition / TFEB activation on TSC2 (mTORC1): TSC2-dependent

SMILES: CC[C@H]1[C@@H]2C=C[C@@H]3[C@H]4C/C=C\C(=O)NCCC[C@@H]5NC(=O)/C(=C(O)/C=C/[C@@H]4C[C@@H]3[C@H]2C[C@H]1C)C5=O [IKA, ikarugamycin]
- known TFEB target genes mRNA in liver and muscle [1]: upregulated in the liver rather than in the muscle
- high fat diet-induced steatosis (liver histology) ([1]; HFD mice): amelioration
- body weight/composition and blood chemistry [1, 4]: significant normalization
- expression of Ppargc1α, Ppar1α and Fgf21 ([1]; HFD mice): upregulation
- lifespan of fem-1(−);dal-1(−) animals (C. elegans; 5 μM IKA vs DMSO): significantly extended
- 75th % (C. elegans; 1st experiment): 16 days
- Mean Lifespan ± s.e.m (C. elegans; 1st experiment): 21.8 ± 0.6 days
- Median lifespan (C. elegans; 1st experiment): 22 days
- Lifespan increase (%) (C. elegans; 1st experiment): 22.2%
- Mean Lifespan ± s.e.m (C. elegans; 2nd experiment): 23.0 ± 0.5 days
- Median lifespan (C. elegans; 2nd experiment): 24 days
- Lifespan increase (%) (C. elegans; 2nd experiment): 22.3%
- dependence of mTORC1 inhibition / TFEB activation on TSC2 (mTORC1): TSC2-dependent
